In one experiment the target is T1, human p110α/p85α (PI3Kα) (Homo sapiens, UniProt P42336).
T1 construct: Full-length human p110α was expressed either in a complex with full-length human p85α (for HTS, biochemistry and HDX-MS); 6xHis tag followed by TEV protease site (N); host or cells: Spodoptera frugiperda Sf9, baculovirus
Briefly: ADP-Glo in vitro lipid kinase assay, PI3Kα. In kind it is biochemical. How it is done:
Kinase reactions were performed with ADP-Glo kinase assay kit (Promega Corporation). The enzyme, substrate and compounds were diluted in reaction buffer (20 mM HEPES, 50 mM NaCl, 50 mM KCl, 3 mM MgCl2, 1 mM EGTA, 1 mM TCEP, pH 7.4). Final concentrations of PI3Kα and PI3Kδ used were 25 nM and 50 nM for PI3Kβ. Liposomes (5% brain PI(4,5)P2, 20% brain phosphatidylserine, 45% brain phosphatidylethanolamine, 15% brain phosphatidylcholine, 10% cholesterol, 5% sphingomyelin (Avanti Polar Lipids)) were used at a final concentration of 1 mg/ml.
For the HTS, the reaction mixture contained 0.75 μl enzyme, 15 nl compound and/or pY and 0.75 μl of liposome substrate mixed with ATP. […] (GL Biochem, Shanghai Ltd). ATP was used at a final concentration of 500 μM unless otherwise stated. The final DMSO concentration in the assay was 1%. The experiments were performed at room temperature for 3 h using 1536-well white-polystyrene plates (Corning #3729) before addition of 2 μl of ADP-Glo R1 to terminate the reaction. The plate was incubated for 40 min, followed by addition of 4 μl of ADP-Glo R2 and incubated further for 60 min in the dark. Luminescence was read using an EnVision (PerkinElmer) plate reader. All analyses were performed using Genedata Screener.
For re-screening of HTS hits and routine compound profiling, the reaction mixture contained 2 μl PI3K enzyme, 2 μl compound and/or pY and 2 μl of liposome substrate mixed with ATP. ATP was used at a final concentration of 500 μM for PI3Kα and PI3Kβ and at 200 μM for PI3Kδ, unless otherwise stated. The final DMSO concentration in the assay was 1%. The experiments were performed at room temperature for 3 h using 384 white-polystyrene plates (Corning #3824) before addition of 6 μl of ADP-Glo R1 to terminate the reaction. The plate was incubated for 45 min, followed by addition of 12 μl of ADP-Glo R2 and incubated further for 60 min in the dark. Luminescence was read using a Sense (Hidex) plate reader. […] All analyses were performed using GraphPad Prism 7.
For characterisation of the effects of 1938 on in vitro PI3K enzymology, all reactions were performed at room temperature with 384 white-polystyrene plates (Corning #3574). The final DMSO concentration in the assay was between 0.5%-1.8%. The reaction mixture contained 2 μl PI3K enzyme, 2 μl compound and/or pY and 2 μl of liposome substrate mixed with ATP. ATP was used at a final concentration of 200 μM, unless otherwise stated.

The test system of experiment [1] is 133 protein kinases and 7 lipid kinases. The experiment can be described thus: SelectScreen kinase profiling, whole panel. In kind it is biochemical. The following applies: 1 μM of 1938. How it is done:
133 protein kinases and 7 lipid kinases were counterscreened, with 1938 used at 1 μM, using the Adapta, Lantha and Z-LYTE assays (SelectScreen Kinase Profiling Service; Thermofisher – experimental details of these assays can be found here: https://www.thermofisher.com/uk/en/home/industrial/pharma-biopharma/drug-discovery-development/target-and-lead-identification-and-validation/kinasebiology/kinase-activity-assays.html. The tree represention in KinMap[59] generated courtesy of Cell Signaling Technology, Inc. (www.cellsignal.com). mTORC1 (mTOR/RAPTOR/LST8) protein complex and ATM kinase and substrates were produced as previously described[57],[60]. Screening of 1938 was conducted using SuperSep Phos-Tag 50 μmol/l 100 x 100 x 6.6 mm 17-well (192-18001/199-18011) gels. For ATM assays, 100 nM ATM was incubated for 30 min at 30°C with 5 μM GST-p53 and 1 mM ATP, in the absence or presence of 200 μM 1938 in ATM Kinase Buffer (50 mM HEPES pH 7.5, 100 mM NaCl, 10% glycerol, 2 mM […], 5 mM MgCl2). As a positive control for ATM activation, the same reaction was carried out with 100 nM ATM/5 μM GST-p53/1 mM ATP in the presence of 100 nM Mre11-Rad50-Nbs1 (MRN) complex, a known activator of ATM[61]. […] Gels were then stained using InstantBlue™ Coomassie, and quantified using BioRad Image Lab Software. […]

Read-outs that look alike come from different tables or passages of the source.

T1 sequence (P42336 whole entry): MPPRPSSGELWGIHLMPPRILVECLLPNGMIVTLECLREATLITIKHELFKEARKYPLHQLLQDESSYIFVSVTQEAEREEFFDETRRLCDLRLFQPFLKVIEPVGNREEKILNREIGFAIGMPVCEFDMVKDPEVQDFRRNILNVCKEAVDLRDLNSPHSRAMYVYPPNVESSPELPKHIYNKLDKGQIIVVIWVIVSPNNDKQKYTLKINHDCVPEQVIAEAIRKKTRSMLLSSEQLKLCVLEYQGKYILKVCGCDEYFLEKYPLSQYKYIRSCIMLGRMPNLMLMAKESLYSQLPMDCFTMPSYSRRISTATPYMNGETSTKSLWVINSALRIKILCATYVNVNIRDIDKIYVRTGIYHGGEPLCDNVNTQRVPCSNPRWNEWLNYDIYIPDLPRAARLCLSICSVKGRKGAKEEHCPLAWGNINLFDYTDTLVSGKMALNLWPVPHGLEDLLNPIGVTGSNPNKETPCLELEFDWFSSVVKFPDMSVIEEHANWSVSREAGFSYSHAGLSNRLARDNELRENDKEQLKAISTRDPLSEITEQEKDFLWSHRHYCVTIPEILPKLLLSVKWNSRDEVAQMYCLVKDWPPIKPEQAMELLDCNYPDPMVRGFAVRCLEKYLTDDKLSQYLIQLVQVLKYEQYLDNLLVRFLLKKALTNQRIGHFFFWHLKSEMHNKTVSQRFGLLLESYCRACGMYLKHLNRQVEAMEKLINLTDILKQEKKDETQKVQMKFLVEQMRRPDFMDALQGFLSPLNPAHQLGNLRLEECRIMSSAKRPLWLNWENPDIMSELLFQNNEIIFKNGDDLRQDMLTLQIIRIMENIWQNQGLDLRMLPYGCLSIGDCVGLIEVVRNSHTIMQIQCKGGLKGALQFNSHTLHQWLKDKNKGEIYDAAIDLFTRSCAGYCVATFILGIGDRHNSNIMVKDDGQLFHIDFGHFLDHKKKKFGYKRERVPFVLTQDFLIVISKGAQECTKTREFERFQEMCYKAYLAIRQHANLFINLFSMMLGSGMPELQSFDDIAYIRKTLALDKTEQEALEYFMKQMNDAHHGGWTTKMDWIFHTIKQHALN
T1 sequence (P27986 whole entry partner): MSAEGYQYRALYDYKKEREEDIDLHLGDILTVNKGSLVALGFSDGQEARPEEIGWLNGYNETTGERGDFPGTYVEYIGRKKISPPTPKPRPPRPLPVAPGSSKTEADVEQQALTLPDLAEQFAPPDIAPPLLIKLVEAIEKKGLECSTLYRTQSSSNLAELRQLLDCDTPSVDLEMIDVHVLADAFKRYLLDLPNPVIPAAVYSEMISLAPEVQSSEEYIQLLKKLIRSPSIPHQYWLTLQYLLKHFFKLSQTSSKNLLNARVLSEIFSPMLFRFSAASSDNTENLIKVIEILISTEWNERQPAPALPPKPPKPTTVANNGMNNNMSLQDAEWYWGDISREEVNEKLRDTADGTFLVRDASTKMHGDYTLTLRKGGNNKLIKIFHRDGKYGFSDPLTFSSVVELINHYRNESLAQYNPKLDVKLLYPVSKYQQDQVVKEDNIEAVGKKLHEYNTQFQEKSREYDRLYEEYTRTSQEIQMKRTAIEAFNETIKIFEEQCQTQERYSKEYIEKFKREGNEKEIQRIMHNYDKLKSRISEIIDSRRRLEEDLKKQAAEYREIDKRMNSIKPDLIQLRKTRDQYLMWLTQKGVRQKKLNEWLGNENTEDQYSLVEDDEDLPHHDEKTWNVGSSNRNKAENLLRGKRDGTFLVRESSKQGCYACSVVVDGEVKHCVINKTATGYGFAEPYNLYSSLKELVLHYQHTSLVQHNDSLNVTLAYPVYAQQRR

For the compound `CCN1CCN(c2ccc(Nc3cc(Nc4cccc5c4N(C(C)=O)CC5)ccn3)cc2)CC1` [Compound 1938], on human p110α/p85α (PI3Kα), the “activation of PI3Kα” value was “activates”. Besides, the “PI3Kα activation in combination with pY” value on human p110α/p85α (PI3Kα) (1938 with a saturating concentration of pY) is recorded as “synergistic PI3Kα activation”. Moreover, the “Maximum activity relative to 1938” value at human p110α/p85α (PI3Kα) (SI Table 3) stood at 100%. The EC50 (in general, the midpoint of the concentration-response curve) at human p110α/p85α (PI3Kα) (SI Table 3, 1938 analogues, read-out: EC50) came out at 58 ± 28 µM. Besides, on human p110α/p85α (PI3Kα) (read-out: EC50 for PI3Kα (in vitro lipid kinase activity)), the EC50 is roughly 60 µM. In experiment [1], the “effect on PI3Kβ, PI3Kγ, PI3Kδ, PI3K-C2α, Vps34, PI4Kβ, mTOR and DNA-PK” value was “did not affect the activity”; the “inhibition of 13 protein kinases of the panel” value is reported as 25-50%.

(Values after publication PMC7614683, “A small molecule PI3Kα activator for cardioprotection and neuroregeneration” (Nature, 2023).)
